Data: PubChem BioAssay (NCI)
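Growth conditions: 96-well plates. Treatment: test compound, 48 hours, 5 concentrations. Analysis: linear interpolation between bracketing concentrations; unreached endpoints set to highest concentration. Abbreviation: GI50, concentration required for 50% inhibition of growth. TGI is the concentration that stops growth completely.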

Key:
Assay in all cases: NCI anticancer screen, dose series, 48 h
CCRF-CEM leukemia = system: CCRF-CEM leukemia
RXF 393 renal = system: RXF 393 renal
NCI-H460 lung = system: NCI-H460 lung
DU-145 prostate = system: DU-145 prostate
BT-549 breast = system: BT-549 breast
HL-60(TB) leukemia = system: HL-60(TB) leukemia
T-47D breast = system: T-47D breast
NCI-H23 lung = system: NCI-H23 lung
MCF7 breast = system: MCF7 breast
K-562 leukemia = system: K-562 leukemia
TK-10 renal = system: TK-10 renal
KM12 colon = system: KM12 colon
OVCAR-4 ovarian = system: OVCAR-4 ovarian
SK-MEL-2 melanoma = system: SK-MEL-2 melanoma
U251 CNS = system: U251 CNS
NCI-H226 lung = system: NCI-H226 lung
SK-OV-3 ovarian = system: SK-OV-3 ovarian
HOP-62 NSCLC = system: HOP-62 NSCLC
HCC-2998 colon = system: HCC-2998 colon
M14 melanoma = system: M14 melanoma
MALME-3M melanoma = system: MALME-3M melanoma
SNB-75 CNS = system: SNB-75 CNS
SF-539 CNS = system: SF-539 CNS
UO-31 renal = system: UO-31 renal
UACC-257 melanoma = system: UACC-257 melanoma
SN12C renal = system: SN12C renal
OVCAR-5 ovarian = system: OVCAR-5 ovarian
UACC-62 melanoma = system: UACC-62 melanoma
A549 NSCLC = system: A549 NSCLC
RPMI-8226 leukemia = system: RPMI-8226 leukemia
A498 renal = system: A498 renal
SK-MEL-28 melanoma = system: SK-MEL-28 melanoma
CAKI-1 renal = system: CAKI-1 renal
786-0 renal = system: 786-0 renal
HCT-15 colon = system: HCT-15 colon
IGROV1 ovarian = system: IGROV1 ovarian
MDA-MB-435 = system: MDA-MB-435
MDA-MB-231 breast = system: MDA-MB-231 breast
ACHN renal = system: ACHN renal
MOLT-4 leukemia = system: MOLT-4 leukemia
HS 578T breast = system: HS 578T breast
SR leukemia = system: SR leukemia
HOP-92 NSCLC = system: HOP-92 NSCLC
SF-295 CNS = system: SF-295 CNS
PC-3 prostate = system: PC-3 prostate
SF-268 CNS = system: SF-268 CNS
NCI/ADR-RES ovarian = system: NCI/ADR-RES ovarian
HCT-116 colon = system: HCT-116 colon
EKVX NSCLC = system: EKVX NSCLC
SNB-19 CNS = system: SNB-19 CNS
HT29 colon = system: HT29 colon
SW-620 colon = system: SW-620 colon
NCI-H522 lung = system: NCI-H522 lung
OVCAR-8 ovarian = system: OVCAR-8 ovarian
COLO 205 colon = system: COLO 205 colon

Molecule `O=c1oc2ccc(-c3ccc(F)cc3F)cc2c(=O)n1-c1cccc(C(F)(F)F)c1` has a GI50 (CCRF-CEM leukemia) of 1710 nM, a TGI (CCRF-CEM leukemia) of 24.5 µM and a GI50 (RXF 393 renal) of 1280 nM. It also gave a TGI (RXF 393 renal) of 3.93 µM, a GI50 (NCI-H460 lung) of 1530 nM and a TGI (NCI-H460 lung) of 5.77 µM. For the same molecule, the GI50 (DU-145 prostate) was 2000 nM, the TGI (DU-145 prostate) was > 50 µM and the GI50 (BT-549 breast) was 1660 nM. It also gave a TGI (BT-549 breast) of 6.77 µM, a GI50 (HL-60(TB) leukemia) of 1100 nM and a TGI (HL-60(TB) leukemia) of 2890 nM. The GI50 (T-47D breast) was 1300 nM, the TGI (T-47D breast) was 4.13 µM and the GI50 (NCI-H23 lung) was 1130 nM. It also gave a TGI (NCI-H23 lung) of 3.73 µM, a GI50 (MCF7 breast) of 1290 nM and a TGI (MCF7 breast) of 4.79 µM. For the same molecule, the GI50 (K-562 leukemia) was 1630 nM, the TGI (K-562 leukemia) was > 50 µM and the GI50 (TK-10 renal) was 2250 nM. It also gave a TGI (TK-10 renal) of 12 µM, a GI50 (KM12 colon) of 1610 nM and a TGI (KM12 colon) of 5.46 µM. It also gave a GI50 (OVCAR-4 ovarian) of 1610 nM, a TGI (OVCAR-4 ovarian) of 40.1 µM and a GI50 (SK-MEL-2 melanoma) of 1210 nM. The TGI (SK-MEL-2 melanoma) was 3.37 µM, the GI50 (U251 CNS) was 1700 nM and the TGI (U251 CNS) was > 50 µM. For the same molecule, the GI50 (NCI-H226 lung) was 1510 nM, the TGI (NCI-H226 lung) was 5.58 µM and the GI50 (SK-OV-3 ovarian) was 1310 nM. It also gave a TGI (SK-OV-3 ovarian) of 3.97 µM, a GI50 (HOP-62 NSCLC) of 1480 nM and a TGI (HOP-62 NSCLC) of 6.33 µM. The GI50 (HCC-2998 colon) was 1600 nM, the TGI (HCC-2998 colon) was 6.24 µM and the GI50 (M14 melanoma) was 1710 nM. For the same molecule, the TGI (M14 melanoma) was 8.41 µM, the GI50 (MALME-3M melanoma) was 1160 nM and the TGI (MALME-3M melanoma) was 3.26 µM. The GI50 (SNB-75 CNS) was 906 nM, the TGI (SNB-75 CNS) was 2590 nM and the GI50 (SF-539 CNS) was 1590 nM. It also gave a TGI (SF-539 CNS) of 6.45 µM, a GI50 (UO-31 renal) of 1130 nM and a TGI (UO-31 renal) of 4.92 µM. It also gave a GI50 (UACC-257 melanoma) of 1210 nM, a TGI (UACC-257 melanoma) of 3.87 µM and a GI50 (SN12C renal) of 1350 nM. For the same molecule, the TGI (SN12C renal) was 4.15 µM, the GI50 (OVCAR-5 ovarian) was 1550 nM and the TGI (OVCAR-5 ovarian) was > 50 µM. For the same molecule, the GI50 (UACC-62 melanoma) was 1200 nM, the TGI (UACC-62 melanoma) was 3.65 µM and the GI50 (A549 NSCLC) was 1680 nM. The TGI (A549 NSCLC) was > 50 µM, the GI50 (RPMI-8226 leukemia) was 1030 nM and the TGI (RPMI-8226 leukemia) was 3.13 µM. For the same molecule, the GI50 (A498 renal) was 902 nM, the TGI (A498 renal) was 2380 nM and the GI50 (SK-MEL-28 melanoma) was 1730 nM. For the same molecule, the TGI (SK-MEL-28 melanoma) was 7.48 µM, the GI50 (CAKI-1 renal) was 1020 nM and the TGI (CAKI-1 renal) was 2990 nM. For the same molecule, the GI50 (786-0 renal) was 1770 nM, the TGI (786-0 renal) was 9.55 µM and the GI50 (HCT-15 colon) was 1530 nM. For the same molecule, the TGI (HCT-15 colon) was 5.6 µM, the GI50 (IGROV1 ovarian) was 1490 nM and the TGI (IGROV1 ovarian) was 8.81 µM. The GI50 (MDA-MB-435) was 1580 nM, the TGI (MDA-MB-435) was 5.34 µM and the GI50 (MDA-MB-231 breast) was 1210 nM. For the same molecule, the TGI (MDA-MB-231 breast) was 2970 nM, the GI50 (ACHN renal) was 1390 nM and the TGI (ACHN renal) was 4.26 µM. For the same molecule, the GI50 (MOLT-4 leukemia) was 1550 nM, the TGI (MOLT-4 leukemia) was 6.89 µM and the GI50 (HS 578T breast) was 1310 nM. The TGI (HS 578T breast) was 4.64 µM, the GI50 (SR leukemia) was 1640 nM and the TGI (SR leukemia) was > 50 µM. It also gave a GI50 (HOP-92 NSCLC) of 952 nM, a TGI (HOP-92 NSCLC) of 2780 nM and a GI50 (SF-295 CNS) of 1230 nM. For the same molecule, the TGI (SF-295 CNS) was 3.34 µM, the GI50 (PC-3 prostate) was 1640 nM and the TGI (PC-3 prostate) was 7.54 µM. It also gave a GI50 (SF-268 CNS) of 1550 nM, a TGI (SF-268 CNS) of 12 µM and a GI50 (NCI/ADR-RES ovarian) of 1270 nM. It also gave a TGI (NCI/ADR-RES ovarian) of 3.96 µM, a GI50 (HCT-116 colon) of 1550 nM and a TGI (HCT-116 colon) of 5.85 µM. For the same molecule, the GI50 (EKVX NSCLC) was 1180 nM, the TGI (EKVX NSCLC) was 4.64 µM and the GI50 (SNB-19 CNS) was 1790 nM. The TGI (SNB-19 CNS) was > 50 µM, the GI50 (HT29 colon) was 6.24 µM and the TGI (HT29 colon) was > 50 µM. The GI50 (SW-620 colon) was 1610 nM, the TGI (SW-620 colon) was 6.47 µM and the GI50 (NCI-H522 lung) was 1420 nM. For the same molecule, the TGI (NCI-H522 lung) was 6.02 µM, the GI50 (OVCAR-8 ovarian) was 1720 nM and the TGI (OVCAR-8 ovarian) was > 50 µM. The GI50 (COLO 205 colon) was 5.91 µM and the TGI (COLO 205 colon) was 14.4 µM.
